Assay results: paper PMC9612383, “Biological Activity of NHC-Gold-Alkynyl Complexes Derived from 3-Hydroxyflavones” (Pharmaceutics, 2022)

Assays:
S. enterica 25928 = experiment: Disk diffusion test; assay type: cell-based; conditions: complex 5 μg, 24 h incubation; diameter including disk (6 mm)
Experimental: (§1) To evaluate the antibacterial potential of gold derivatives, […] bacterial strains were selected: E. coli, P. aeruginosa, S. enterica, E. faecalis, L. monocytogenes, S. epidermidis, S. aureus. Dis diffusion assay was performed following Clinical & Laboratory Standards Institute (CLSI) recommendations. Active cultures (0.5 McFarland) from all strains were spread onto Mueller–Hinton Agar (MHA, Oxoid, Basingstoke, UK) and disks impregnated with 10 µL of each gold complex or control (DMSO for negative control, phenol for positive control) were placed. Plates were and incubated for 22 h ± 2 h at 37 °C ± 1 °C and then the diameter of the inhibition zone was determined.

[1] = test system: panel of Gram-positive and Gram-negative strains; experiment: Disk diffusion method, whole panel (summary in words); assay type: cell-based; conditions: whole panel, Gram-positive and Gram-negative strains
Experimental: as §1
Given that NHC-gold derivatives might display antibacterial activity, we evaluated the antibacterial effect of the complexes toward a panel of Gram-positive and Gram-negative strains using the disk diffusion method. The selected strains are human pathogen or commensal bacteria and the results are summarized on Table 1.

[2] = target: thioredoxin reductase (TrxR) (Escherichia coli, UniProt P0A9P4); conditions: E. coli cell lysates incubated with complex
Chain of thioredoxin reductase (TrxR) (P0A9P4 whole entry): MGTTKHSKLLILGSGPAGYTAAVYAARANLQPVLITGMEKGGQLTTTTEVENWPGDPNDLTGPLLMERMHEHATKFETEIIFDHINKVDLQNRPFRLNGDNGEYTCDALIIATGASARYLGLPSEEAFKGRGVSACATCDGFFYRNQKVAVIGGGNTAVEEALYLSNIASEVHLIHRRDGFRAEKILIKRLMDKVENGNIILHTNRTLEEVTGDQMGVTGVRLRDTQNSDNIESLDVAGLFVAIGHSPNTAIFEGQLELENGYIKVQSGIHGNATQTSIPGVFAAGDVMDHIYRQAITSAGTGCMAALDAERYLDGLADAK
Experimental: For sample preparation, E. coli were lysated by sonication. After ultrasonic homogenization, the lysate was centrifuged 1 min at 13,000 rpm and the pellet was resuspended in extraction buffer. […] Both extraction and reaction buffer consisted of 10 mM Tris-HCl, 1 mM EDTA, 100 mM NaCl and protease inhibitor.

Caco-2 cells = experiment: MTT antiproliferative assay; assay type: cell-based, Human; conditions: Caco-2 cell line, 72 h incubation, mean ± SE
Experimental: Human colorectal adenocarcinoma Caco-2 cells were kindly provided by Dr. Edith Brot-Laroche (Universite Pierre et Marie Curie-Paris 6 UMR S872, Les Cordeliers, France) and were maintained in a humidified atmosphere of 5% CO2 at 37 °C in Dulbecco’s Modified Eagles medium (DMEM) (Gibco Invitrogen, Paisley, UK) supplemented with 20% fetal bovine serum, 1% non-essential amino acids, 1% penicillin (1000 U/mL), 1% streptomycin ([…]) and 1% amphotericin (250 U/mL). For treatment, gold complexes were initially dissolved in DMSO to a concentration of 20 mM and then diluted on cell culture without fetal bovine serum to the required work concentrations, which was added 24 h post-seeding. Then, cells were incubated at 37 °C for the required time for each assay.
Cell viability was determined with the 3-(4,5-dimethyl-2-thiazoyl)-2,5-diphenyltetrazolium bromide (MTT) assay as previously described by Mármol et al.. For IC50 calculation, cells were grown in 96-well plates at a density of 4000 cells per well and incubated overnight at standard culture conditions. Then, cells were exposed 72 h to 0–20 μM of each gold complex and changes in absorbance were converted into percentage of growth inhibition in comparison to negative control (DMSO. Absorbance was measured with SPECTROstar Nano (BMG Labtech).

`Cn1cc[n+](C)[c]1[Au-][C]#CCOc1c(-c2ccc(Br)cc2)oc2ccccc2c1=O` [1b, [Au(Lb)(IMe)] (R = Br; IMe = C5H10N2)] was tested, and the “Inhibition Zone” value (S. enterica 25928) was 8.90 ± 1.56 mm, the “antibacterial effect (in words)” value [1] was “able to interfere with the development of both Gram positive and Gram negative strains” and the “TrxR activity (percentage respect to control)” value [2] was “did not result in a significative reduction of TrxR activity”. For the same molecule, the IC50 (Caco-2 cells) was 23 ± 2.42 µM.
